# Key:
# HL-60(TB) [1] = assay: Cytotoxicity against human HL-60(TB) cells assessed as growth inhibition after 48 hrs by sulforhodamine B assay; assay type: functional; settings: HL-60, 48 h
# NCI-H460 = assay: Cytotoxicity against human NCI-H460 cells assessed as growth inhibition after 48 hrs by sulforhodamine B assay; assay type: functional; settings: NCI-H460, 48 h
# SF-539 = assay: Cytotoxicity against human SF539 cells assessed as growth inhibition after 48 hrs by sulforhodamine B assay; assay type: functional; settings: SF-539, 48 h
# SK-MEL-28 [2] = assay: Cytotoxicity against human SK-MEL-28 cells assessed as growth inhibition after 48 hrs by sulforhodamine B assay; assay type: functional; settings: SK-MEL-28, 48 h
# IGROV-1 [3] = assay: Cytotoxicity against human IGROV1 cells assessed as growth inhibition after 48 hrs by sulforhodamine B assay; assay type: functional; settings: IGROV-1, 48 h
# MDA-MB-231 [4] = assay: Cytotoxicity against human MDA-MB-231 cells assessed as growth inhibition after 48 hrs by MTT assay; assay type: functional, cell-based; settings: MDA-MB-231, 48 h
# ACHN = assay: Cytotoxicity against human ACHN cells assessed as cell growth at 0.01 uM after 48 hrs by sulforhodamine B assay relative to control; assay type: functional; settings: read-out: Activity
# UACC-257 [5] = assay: Cytotoxicity against human UACC257 cells assessed as cell growth at 0.01 uM after 48 hrs by sulforhodamine B assay relative to control; assay type: functional; settings: UACC-257, 48 h, read-out: Activity
# SN12C [6] = assay: Cytotoxicity against human SN12C cells assessed as cell growth at 0.01 uM after 48 hrs by sulforhodamine B assay relative to control; assay type: functional; settings: read-out: Activity
# PC-3 [7] = assay: Cytotoxicity against human PC3 cells assessed as cell growth at 0.01 uM after 48 hrs by sulforhodamine B assay relative to control; assay type: functional; settings: PC-3, 48 h, read-out: Activity
# DU-145 = assay: Cytotoxicity against human DU145 cells assessed as cell growth at 0.01 uM after 48 hrs by sulforhodamine B assay relative to control; assay type: functional; settings: DU-145, 48 h, read-out: Activity
# CCRF-CEM = assay: Cytotoxicity against human CCRF-CEM cells assessed as cell growth at 0.1 uM after 48 hrs by sulforhodamine B assay relative to control; assay type: functional; settings: read-out: Activity
# HOP-62 [8] = assay: Cytotoxicity against human HOP62 cells assessed as cell growth at 0.1 uM after 48 hrs by sulforhodamine B assay relative to control; assay type: functional; settings: HOP-62, 48 h, read-out: Activity
# NCI-H23 = assay: Cytotoxicity against human NCI-H23 cells assessed as cell growth at 0.1 uM after 48 hrs by sulforhodamine B assay relative to control; assay type: functional; settings: NCI-H23, 48 h, read-out: Activity
# 786-0 [9] = assay: Cytotoxicity against human 786-0 cells assessed as cell growth at 0.1 uM after 48 hrs by sulforhodamine B assay relative to control; assay type: functional; settings: 786-0, 48 h, read-out: Activity
# MOLT-4 [10] = assay: Cytotoxicity against human MOLT4 cells assessed as cell growth at 1 uM after 48 hrs by sulforhodamine B assay relative to control; assay type: functional; settings: MOLT-4, 48 h, read-out: Activity
# SR = assay: Cytotoxicity against human SR cells assessed as cell growth at 1 uM after 48 hrs by sulforhodamine B assay relative to control; assay type: functional; settings: read-out: Activity
# A549 = assay: Cytotoxicity against human A549/ATCC cells assessed as cell growth at 1 uM after 48 hrs by sulforhodamine B assay relative to control; assay type: functional; settings: A549, 48 h, read-out: Activity
# SK-MEL-28 [11] = assay: Cytotoxicity against human SK-MEL-28 cells assessed as cell growth at 1 uM after 48 hrs by sulforhodamine B assay relative to control; assay type: functional; settings: SK-MEL-28, 48 h, read-out: Activity
# UACC-257 [12] = assay: Cytotoxicity against human UACC257 cells assessed as cell growth at 1 uM after 48 hrs by sulforhodamine B assay relative to control; assay type: functional; settings: UACC-257, 48 h, read-out: Activity
# UACC-62 = assay: Cytotoxicity against human UACC62 cells assessed as cell growth at 1 uM after 48 hrs by sulforhodamine B assay relative to control; assay type: functional; settings: UACC-62, 48 h, read-out: Activity
# SK-OV-3 = assay: Cytotoxicity against human SKOV3 cells assessed as cell growth at 1 uM after 48 hrs by sulforhodamine B assay relative to control; assay type: functional; settings: SK-OV-3, 48 h, read-out: Activity
# RXF 393 = assay: Cytotoxicity against human RXF393 cells assessed as cell growth at 1 uM after 48 hrs by sulforhodamine B assay relative to control; assay type: functional; settings: RXF 393, 48 h, read-out: Activity
# PC-3 [13] = assay: Cytotoxicity against human PC3 cells assessed as cell growth at 1 uM after 48 hrs by sulforhodamine B assay relative to control; assay type: functional; settings: PC-3, 48 h, read-out: Activity
# MOLT-4 [14] = assay: Cytotoxicity against human MOLT4 cells assessed as cell growth at 10 uM after 48 hrs by sulforhodamine B assay relative to control; assay type: functional; settings: MOLT-4, 48 h, read-out: Activity
# HOP-62 [15] = assay: Cytotoxicity against human HOP62 cells assessed as cell growth at 10 uM after 48 hrs by sulforhodamine B assay relative to control; assay type: functional; settings: HOP-62, 48 h, read-out: Activity
# SK-MEL-28 [16] = assay: Cytotoxicity against human SK-MEL-28 cells assessed as cell growth at 10 uM after 48 hrs by sulforhodamine B assay relative to control; assay type: functional; settings: SK-MEL-28, 48 h, read-out: Activity
# IGROV-1 [17] = assay: Cytotoxicity against human IGROV1 cells assessed as cell growth at 10 uM after 48 hrs by sulforhodamine B assay relative to control; assay type: functional; settings: IGROV-1, 48 h, read-out: Activity
# NCI/ADR-RES = assay: Cytotoxicity against human NCI/ADR-RES cells assessed as cell growth at 10 uM after 48 hrs by sulforhodamine B assay relative to control; assay type: functional; settings: read-out: Activity
# A498 = assay: Cytotoxicity against human A498 cells assessed as cell growth at 10 uM after 48 hrs by sulforhodamine B assay relative to control; assay type: functional; settings: A498, 48 h, read-out: Activity
# SN12C [18] = assay: Cytotoxicity against human SN12C cells assessed as cell growth at 10 uM after 48 hrs by sulforhodamine B assay relative to control; assay type: functional; settings: read-out: Activity
# TK-10 = assay: Cytotoxicity against human TK10 cells assessed as cell growth at 10 uM after 48 hrs by sulforhodamine B assay relative to control; assay type: functional; settings: TK-10, 48 h, read-out: Activity
# SK-MEL-5 = assay: Cytotoxicity against human SK-MEL-5 cells assessed as cell growth at 100 uM after 48 hrs by sulforhodamine B assay relative to control; assay type: functional; settings: SK-MEL-5, 48 h, read-out: Activity
# 786-0 [19] = assay: Cytotoxicity against human 786-0 cells assessed as cell growth at 100 uM after 48 hrs by sulforhodamine B assay relative to control; assay type: functional; settings: 786-0, 48 h, read-out: Activity
# MDA-MB-231 [20] = assay: Cytotoxicity against human MDA-MB-231 cells assessed as cell growth at 100 uM after 48 hrs by sulforhodamine B assay relative to control; assay type: functional; settings: MDA-MB-231, 48 h, read-out: Activity
# HL-60(TB) [21] = assay: Cytotoxicity against human HL-60(TB) cells assessed as cell growth at 10 uM after 48 hrs by sulforhodamine B assay relative to control; assay type: functional; settings: HL-60, 48 h, read-out: Activity
smiles,measurement,setting,value
COc1ccc(-c2cc(/C=C/C(=O)c3ccc4c(c3)OCO4)[nH]n2)cc1OC,GI50,HL-60(TB) [1],2.76 µM
same,GI50,NCI-H460,0.6 µM
same,GI50,SF-539,0.52 µM
same,GI50,SK-MEL-28 [2],1.82 µM
same,GI50,IGROV-1 [3],3.13 µM
same,IC50,MDA-MB-231 [4],2.3 µM
COc1cc(-c2cc(/C=C/C(=O)c3ccc(N)cc3)[nH]n2)cc(OC)c1OC,GI50,HL-60(TB) [1],1.74 µM
same,LC50,HL-60(TB) [1],> 100 µM
same,TGI,HL-60(TB) [1],10.8 µM
same,GI50,NCI-H460,1.8 µM
same,LC50,NCI-H460,44.8 µM
same,TGI,NCI-H460,5.1 µM
same,GI50,SF-539,1.3 µM
same,LC50 (concentration killing 50% of cells),SF-539,5.42 µM
same,TGI,SF-539,2.66 µM
same,GI50,SK-MEL-28 [2],1.86 µM
same,LC50,SK-MEL-28 [2],8.93 µM
same,TGI,SK-MEL-28 [2],4.08 µM
same,GI50,IGROV-1 [3],3.2 µM
same,LC50,IGROV-1 [3],> 100 µM
same,TGI,IGROV-1 [3],10.5 µM
same,IC50,MDA-MB-231 [4],2 µM
same,growth at 0.01 µM,ACHN,95%
same,growth at 0.01 µM,UACC-257 [5],94%
same,growth at 0.01 µM,SN12C [6],98%
same,growth at 0.01 µM,PC-3 [7],97%
same,growth at 0.01 µM,DU-145,107%
same,growth at 0.1 µM,CCRF-CEM,91%
same,growth at 0.1 µM,HOP-62 [8],92%
same,growth at 0.1 µM,NCI-H23,105%
same,growth at 0.1 µM,786-0 [9],94%
same,growth at 1 µM,MOLT-4 [10],72%
same,growth at 1 µM,SR,14%
same,growth at 1 µM,A549,80%
same,growth at 1 µM,SK-MEL-28 [11],90%
same,growth at 1 µM,UACC-257 [12],91%
same,growth at 1 µM,UACC-62,86%
same,growth at 1 µM,SK-OV-3,104%
same,growth at 1 µM,RXF 393,67%
same,growth at 1 µM,PC-3 [13],76%
same,growth at 10 µM,MOLT-4 [14],-5%
same,growth at 10 µM,HOP-62 [15],-59%
same,growth at 10 µM,SK-MEL-28 [16],-57%
same,growth at 10 µM,IGROV-1 [17],1%
same,growth at 10 µM,NCI/ADR-RES,15%
same,growth at 10 µM,A498,-43%
same,growth at 10 µM,SN12C [18],-45%
same,growth at 10 µM,TK-10,26%
same,growth at 100 µM,SK-MEL-5,-94%
same,growth at 100 µM,786-0 [19],-90%
same,growth at 100 µM,MDA-MB-231 [20],-77%
COc1cc(C(=O)/C=C/c2cc(-c3cc(OC)c(OC)c(OC)c3)n[nH]2)cc(OC)c1OC,LC50,HL-60(TB) [1],> 100 µM
same,TGI,HL-60(TB) [1],5.52 µM
same,LC50,NCI-H460,9.91 µM
same,TGI,NCI-H460,4.33 µM
same,LC50 (concentration killing 50% of cells),SF-539,6.23 µM
same,TGI,SF-539,2.83 µM
same,LC50,SK-MEL-28 [2],6.07 µM
same,TGI,SK-MEL-28 [2],3.33 µM
same,LC50,IGROV-1 [3],33.1 µM
same,TGI,IGROV-1 [3],10.2 µM
same,IC50,MDA-MB-231 [4],0.7 µM
same,growth at 0.01 µM,ACHN,103%
same,growth at 0.01 µM,UACC-257 [5],94%
same,growth at 0.01 µM,SN12C [6],96%
same,growth at 0.01 µM,PC-3 [7],95%
same,growth at 0.1 µM,CCRF-CEM,94%
same,growth at 0.1 µM,HOP-62 [8],94%
same,growth at 0.1 µM,NCI-H23,101%
same,growth at 0.1 µM,786-0 [9],105%
same,growth at 1 µM,MOLT-4 [10],81%
same,growth at 1 µM,SR,22%
same,growth at 1 µM,A549,84%
same,growth at 1 µM,SK-MEL-28 [11],100%
same,growth at 1 µM,UACC-257 [12],85%
same,growth at 1 µM,UACC-62,90%
same,growth at 1 µM,SK-OV-3,96%
same,growth at 1 µM,RXF 393,65%
same,growth at 1 µM,PC-3 [13],74%
same,growth at 10 µM,HL-60(TB) [21],-28%
same,growth at 10 µM,MOLT-4 [14],-4%
same,growth at 10 µM,HOP-62 [15],-91%
same,growth at 10 µM,SK-MEL-28 [16],-92%
same,growth at 10 µM,IGROV-1 [17],1%
same,growth at 10 µM,NCI/ADR-RES,12%
same,growth at 10 µM,A498,-64%
same,growth at 10 µM,SN12C [18],-86%
same,growth at 10 µM,TK-10,-98%
same,growth at 100 µM,SK-MEL-5,-98%
same,growth at 100 µM,786-0 [19],-98%
same,growth at 100 µM,MDA-MB-231 [20],-96%
